The record followed here is patent US11583524B2, “Inhibitors of the interaction between MDM2 and P53” (Janssen Pharmaceutica NV, priority 2007, dated 2023).

Each structure is given as a SMILES string. Counter-ions that a name gives are not always drawn. Bounds are passed on as bounds.

The first data set relates to A2780 ovarian cancer cells. The data set is described as follows: Alamar Blue cell proliferation assay, A2780. Format: cell-based, human. The following applies: Homo sapiens, 96 h, 4-day incubation, read-out: A2780 cell proliferation inhibition pIC50 (converted). Here is the method: Cellular activity of the compounds of formula (I) was determined on A2780 tumour cells using a colorimetric assay for cell toxicity or survival (see example C.2).
The human A2780 ovarian cancer cells were a kind gift from Dr. T. C. Hamilton (Fox Chase Cancer Centre, Pennsylvania, U.S.A.). The cells were cultured in RPMI 1640 medium supplemented with 2 mM L-Glutamine, 50 μg/ml gentamicin and 10% fetal calf serum.
(§1) Resazurin was purchased from Aldrich (Prod. No. 199303). Potassium ferrocyanide, potassium ferricyanide, KH2PO4 and K2HPO4 were purchased from Sigma (Prod. Nos. P9387, P8131, P5655 and P8281, respectively).
(§2) Potassium Phosphate Buffer 0.1 M (PPB) was made as follows: 2.72 gram KH2PO4 and 13.86 gram K2HPO4 were dissolved in 500 ml milli-Q H2O, the pH was adjusted to pH 7.4 and the volume was brought to 1 litre with milli-Q H2O; the buffer was filter sterilised and stored at room temperature. Resazurin stock solution (PPB-A) was prepared fresh by dissolving 45 mg resazurin in 15 ml PBS. 30 mM potassium ferricyanide (PPB-B) was prepared by dissolving 0.987 gram potassium ferricyanide in 100 ml PPB. 30 mM potassium ferrocyanide (PPB-C) was prepared by dissolving 1.266 gram potassium ferrocyanide in 100 ml PPB.
(§3) Mixture of PPB-A, PPB-B and PPB-C was prepared by mixing equal volumes of the respective solutions. Resazurin work solution (herein termed “Alamar Blue” solution) was prepared by diluting said mixture 20×(vol/vol) in PPB and filter sterilising; the Alamar Blue solution could be kept at 4° C. for a maximum of 2 weeks.
(§4) For experiments in 384 wells plates the cells were seeded at a density of 5×10^3 cells/ml in Falcon 384-well culture plates (Life Technologies, Merelbeke, Belgium), black with clear bottom, in 45 μl culture medium. Cells were allowed to adhere to plastic for 24 hr. The tested compound was pre-diluted (1/50 in culture medium) and 5 μl pre-diluted compound was added to the wells. Following 4-day incubation, 10 μl of the Alamar Blue solution was added to each well and the cells were further incubated for 5 hrs (A2780) or 6 hrs (U87MG) at 37° C. The fluorescence intensity was measured for each well with a Fluorescence plate reader (Fluorskan, Labsystems, 540 nm excitation and 590 nm emission)
(§5) The antiproliferative activity was calculated as percentage of remaining viable cells in treated versus control (untreated cells) conditions. Within an experiment, the result for each experimental condition is the mean of 3 replicate wells. When appropriate, the experiments were repeated to establish full concentration-response curves. When appropriate, IC50-values (concentration of the drug, needed to reduce cell growth to 50% of the control) were computed using probit analysis for graded data (Finney, D. J., Probit Analyses, 2nd Ed. Chapter 10, Graded Responses, Cambridge University Press, Cambridge 1962). Herein the effects of test compounds are expressed as pIC50 (the negative log value of the IC50-value) (see Table 4).
(In general: Alamar Blue is a resazurin reagent that responds to reducing activity.)
For the compound `Fc1cc(Nc2ccncc2)cc(F)c1NCCc1c[nH]c2ccccc12` [Compound 11], the IC50 was over 10 µM.

In the case of `OC1CCc2c(Nc3cc(F)c(NCCc4c[nH]c5ccccc45)c(F)c3)ccnc21` (stereo not drawn) [Compound 17], the IC50 was 8.32 µM.

For `OCc1cc(Nc2cc(Cl)c(NCCc3c[nH]c4ccccc34)c(Cl)c2)ccn1` [Compound 24], the IC50 was over 10 µM.

On to `Cc1[nH]c2ccccc2c1CCNc1c(Cl)cc(Nc2ccnc(CO)c2)cc1Cl` [Compound 25], for which the IC50 is over 10 µM.

Regarding `COc1ccc2c(CCNc3c(Cl)cc(Nc4ccnc5ccccc45)cc3Cl)c[nH]c2c1` [Compound 31], the IC50 was about 2.57 µM.

For the compound `COc1c(Nc2ccnc3c2CCC3O)ccc(NCCc2c[nH]c3c(CO)cccc23)c1F` (stereo not drawn) [Compound 62], the IC50 was 0.912 µM.

For the compound `COc1c(Nc2ccnc3c2CCC3O)ccc(NCCc2c[nH]c3c(C(C)(C)O)cccc23)c1F` (stereo not drawn) [Compound 63], the IC50 is 0.0741 µM.

Turning to `C=C(C)c1cccc2c(CCNc3ccc(Nc4ccnc5c4CCC5O)c(OC)c3F)c[nH]c12` (stereo not drawn) [Compound 64], the IC50 was 0.0851 µM.

A further data set concerns U87MG glioma cells. The data set is described as follows: Alamar Blue cell proliferation assay, U87MG. Format: cell-based, human. Particulars: Homo sapiens, U-87 MG, 96 h, 4-day incubation, read-out: U87MG cell proliferation inhibition pIC50 (converted). Here is the method: The human U87MG glioma cells were cultured in DMEM medium supplemented with 2 mM L-Glutamine, 1 mM Sodium Pyruvate, 1.5 g/L Sodium Bicarbonate, 50 μg/ml gentamicin and 10% heat inactivated fetal calf serum. (U87MG cells are human glioblastoma cells with wild type p53. In this cell line MDM2 tightly controls p53 expression).
as §1, §2, §3, §4, §5
`Fc1cc(Nc2ccncc2)cc(F)c1NCCc1c[nH]c2ccccc12` [Compound 11]: the IC50 is 4.9 µM.

In the case of `OC1CCc2c(Nc3cc(F)c(NCCc4c[nH]c5ccccc45)c(F)c3)ccnc21` (stereo not drawn) [Compound 17], the IC50 was 6.92 µM.

Turning to `OCc1cc(Nc2cc(Cl)c(NCCc3c[nH]c4ccccc34)c(Cl)c2)ccn1` [Compound 24], the IC50 is over 10 µM.

Take `Cc1[nH]c2ccccc2c1CCNc1c(Cl)cc(Nc2ccnc(CO)c2)cc1Cl` [Compound 25]: the IC50 is over 10 µM.

Consider `COc1ccc2c(CCNc3c(Cl)cc(Nc4ccnc5ccccc45)cc3Cl)c[nH]c2c1` [Compound 31], for which the IC50 was 1.32 µM.

Consider `COc1c(Nc2ccnc3c2CCC3O)ccc(NCCc2c[nH]c3c(CO)cccc23)c1F` (stereo not drawn) [Compound 62], for which the IC50 is 1.29 µM.

With `COc1c(Nc2ccnc3c2CCC3O)ccc(NCCc2c[nH]c3c(C(C)(C)O)cccc23)c1F` (stereo not drawn) [Compound 63], the IC50 was 0.468 µM.

As for `C=C(C)c1cccc2c(CCNc3ccc(Nc4ccnc5c4CCC5O)c(OC)c3F)c[nH]c12` (stereo not drawn) [Compound 64], the IC50 was 0.339 µM.

System in the next data set: not given
Assay: not given
Conditions: not given
`OCc1cc(Nc2cc(F)c(NCCc3c[nH]c4ccccc34)c(F)c2)ccn1` (as salt: hydrochloric acid salt) [Compound 14] gave a melting point of 110 °C.

Compound `Fc1cc(Nc2ccncc2)cc(F)c1NCCc1c[nH]c2ccccc12` [Compound 11] displayed a melting point of 164 °C.

Take `OC1CCc2c(Nc3cc(F)c(NCCc4c[nH]c5ccccc45)c(F)c3)ccnc21` (stereo not drawn) [Compound 17]: the melting point turned out to be 147 °C.

With `OCc1cc(Nc2cc(Cl)c(NCCc3c[nH]c4ccccc34)c(Cl)c2)ccn1` [Compound 24], the melting point was 115 °C.

`Cc1[nH]c2ccccc2c1CCNc1c(Cl)cc(Nc2ccnc(CO)c2)cc1Cl` [Compound 25] showed a melting point of 186 °C.

Turning to `COc1ccc2c(CCNc3c(Cl)cc(Nc4ccnc5ccccc45)cc3Cl)c[nH]c2c1` [Compound 31], the melting point came to 175 °C.

The subject of the next data set is p53 in A2780 cells. The data set is described as follows: p53 ELISA (preservation of p53 in A2780 cells). Format: cell-based, human. The following applies: Homo sapiens, lowest dose giving at least 140% of the p53 value in the control, 16 hours treatment, read-out: p53-elisa LAD. As for the experimental part: The capacity of the compounds to preserve p53 in A2780 cells was measured with the p53 enzyme linked immunosorbent assay (ELISA). The p53 assay is a “sandwich” enzyme immunoassay employing two polyclonal antibodies. A polyclonal antibody, specific for the p53 protein, has been immobilized onto the surface of the plastic wells. Any p53 present in the sample to be assayed will bind to the capture antibody. The biotinylated detector polyclonal antibody also recognizes p53 protein, and will bind to any p53, which has been retained by the capture antibody. The detector antibody, in turn, is bound by horseradish peroxidase-conjugated streptavidin. The horseradish peroxidase catalyses the conversion of the chromogenic substrate o-phenylene diamine, the intensity of which is proportional to the amount of p53 protein bound to the plate. The coloured reaction product is quantified using a spectrophotometer. Quantitation is achieved by the construction of a standard curve using known concentrations of purified recombinant HIS tagged p53 protein (see example C.1).
A2780 cells (ATCC) were cultivated in RPMI 1640 supplemented with 10% fetal calf serum (FCS), 2 mM L-glutamine and gentamycin at 37° C. in a humidified incubator with 5% CO2.
A2780 cells were seeded at 20.000 cells per well in a 96 well plate, cultured for 24 hours and treated with compound for 16 hours at 37° C. in a humidified incubator. After incubation, the cells were washed once with phosphate-buffered saline and 30 μl, per well, low salt RIPA buffer (20 mM tris, pH7.0, 0.5 mM EDTA, 1% Nonidet P40, 0.5% DOC, 0.05% SDS, 1 mM PMSF, 1 μg/ml aprotinin and 0.5 μ/ml leupeptin) was added. Plates were placed on ice for 30 minutes to complete the lysis. p53 protein was detected in de lysates by using the sandwich ELISA, described below.
High binding polystyrene EIA/RIA 96 well plates (Costar 9018) were coated with the capture antibody pAb1801 (Abcam ab28-100) at a concentration of 1 μg/ml in coating buffer (0.1 M NaHCO3 pH8.2), 50 μl per well. The antibody was allowed to adhere overnight at 4° C. Coated plates were washed once with phosphate-buffered saline (PBS)/0.05% Tween 20 and 300 μl of blocking buffer (PBS, 1% bovine serum albumins (BSA)) was added, for an incubation period of 2 hours at room temperature. Dilutions of purified recombinant HIS tagged p53 protein, ranging from 3-200 ng/ml, were made in blocking buffer and used as standards.
Plates were washed twice with PBS/0.05% Tween 20 and blocking buffer or standards were added at 80 μl/well. To the standards, 20 μl of lysis buffer was added. The samples were added to the other wells at 20 μl lysate/well. After an overnight incubation at 4° C., plates were washed twice with PBS/0.05% Tween 20. Aliquots of 100 μl secondary polyclonal antibody p53(FL-393) (Tebubio, sc-6243) at a concentration of 1 μg/ml in blocking buffer were added to each well and allowed to adhere for 2 hours at room temperature. Plates were washed three times with PBS/0.05% Tween 20. Detection antibody anti-rabbit HRP (sc-2004, Tebubio) at 0.04 μg/ml in PBS/1% BSA was added and incubated for 1 hour at room temperature. Plates were washed three times with PBS/0.05% Tween 20 and 100 μl of substrate buffer was added (substrate buffer was prepared shortly before use by adding 1 tablet of 10 mg o-phenylene diamine (OPD) from Sigma and 125 μl 3% H2O2 to 25 ml OPD buffer: 35 mM citric acid, 66 mM Na2HPO4, pH5.6). After 5 to 10 minutes, colour reaction was stopped by adding 50 μl stop buffer (1 M H2SO4) per well. The absorbance at dual wavelengths of 490/655 nm was measured using a Biorad micro plate reader and the results were then analyzed.
For each experiment, controls (containing no drug) and a blank incubation (containing no cells or drugs) were run in parallel. The blank value was subtracted from all control and sample values. For each sample, the value of p53 (in absorbance units) was expressed as the percentage of the value for p53 present in the control. […]
For orientation: In an ELISA, binding on a coated surface is turned into a signal by an enzyme label.
Consider `Fc1cc(Nc2ccncc2)cc(F)c1NCCc1c[nH]c2ccccc12` [Compound 11], for which the minimal effective concentration is over 10 µM.

As for `OC1CCc2c(Nc3cc(F)c(NCCc4c[nH]c5ccccc45)c(F)c3)ccnc21` (stereo not drawn) [Compound 17], the minimal effective concentration was found to be 1 µM.

For `OCc1cc(Nc2cc(Cl)c(NCCc3c[nH]c4ccccc34)c(Cl)c2)ccn1` [Compound 24], the minimal effective concentration was over 10 µM.

For `Cc1[nH]c2ccccc2c1CCNc1c(Cl)cc(Nc2ccnc(CO)c2)cc1Cl` [Compound 25], the minimal effective concentration came out at 3 µM.

On to `COc1ccc2c(CCNc3c(Cl)cc(Nc4ccnc5ccccc45)cc3Cl)c[nH]c2c1` [Compound 31], for which the minimal effective concentration is 1 µM.

On to `COc1c(Nc2ccnc3c2CCC3O)ccc(NCCc2c[nH]c3c(CO)cccc23)c1F` (stereo not drawn) [Compound 62], for which the minimal effective concentration was 3 µM.

For the compound `COc1c(Nc2ccnc3c2CCC3O)ccc(NCCc2c[nH]c3c(C(C)(C)O)cccc23)c1F` (stereo not drawn) [Compound 63], the minimal effective concentration was determined as 1 µM.

Take `C=C(C)c1cccc2c(CCNc3ccc(Nc4ccnc5c4CCC5O)c(OC)c3F)c[nH]c12` (stereo not drawn) [Compound 64]: the minimal effective concentration amounted to 0.3 µM.

A word on the melting point: it is the temperature, or range, at which the solid turns liquid.
